Patent US12545695B2, “Compounds for inhibiting neovascularization factors and use thereof” (UNIST (ULSAN NATIONAL INSTITUTE OF SCIENCE AND TECHNOLOGY), priority 2019, dated 2026)

Columns and labels:
HIF-1α = experiment: Western blot of HIF-1α in Muller cells (MIO-M1) under hypoxia; assay type: cell-based; conditions: MIO-M1, hypoxic chamber 1% O2 (FIG. 8)
Method: Muller cells (MIO-M1) were cultured at 37° C. and 5% CO2, and DMEM-low glucose (Sigma) including 10% fetal bovine serum and 1% penicillin & streptomycin was used as the medium. A hypoxic chamber was maintained at 37° C., 5% CO2 and 1% O2.
Muller cells (MIO-M1) were seeded in the number of 4×10^5 on a 60-millimeter plate and cultured in 3 ml of medium for 24 hours. The next day, the cells were treated with SMX, a mitochondrial heat shock protein 90 (TRAP1) inhibitor according to the concentrations shown in the drawing and cultured in a hypoxic chamber for 6 hours. Whole cell lysates were made from the cultured cells, electrophoresed, transferred to a PVDF membrane, and then treated with a primary antibody at 4° C. for 18 hours. The next day, the whole cell lysates were treated with a secondary antibody for 1 hour and protein expression was analyzed using a western blotting detection reagent.
Muller cells (MIO-M1) were cultured at 37° C. and 5% CO2, and DMEM-low glucose (Sigma) including 10% fetal bovine serum and 1% penicillin & streptomycin was used as the medium. A hypoxic chamber was maintained at 37° C., 5% CO2 and 1% O2. […] The next day, the whole cell lysates were treated with a secondary antibody for 1 hour and protein expression was analyzed using a western blotting detection reagent.

TRAP-1 = experiment: ATPase activity assay (PiColorLock Gold Phosphate Detection Kit); assay type: biochemical; conditions: TRAP1 0.5 μM, 0.2 mM ATP, inhibitor 0.520 μM preincubated 30 minutes (FIG. 16)
Method: ATPase activity was measured by measuring the release of inorganic phosphates through the PiColorLock Gold Phosphate Detection Kit (Innova Biosciences) according to the manufacturer's manual. TRAP1 (0.5 μM) was cultured with 0.2 mM ATP in 100 mM Tris, 20 mM KCl, and 6 mM MgCl2 under the conditions of pH 7.0 and 37° C. for 3 hours. Thereafter, the PiColorLock Gold reagent and an accelerator (100:1) were added to a 100 μL ATP hydrolyzate sample. After culturing at 25° C. for 5 minutes, the change in color was stopped by adding 10 μL of a stop solution thereto, and the absorbance at 620 nm was measured by SYNERGY NEO microplate reader (BioTek Instruments).
For inhibitory ability analysis, TRAP1 was cultured with a predetermined concentration (0.520 μM) of inhibitor for 30 minutes and then stirred with ATP. Absorbance values were normalized to a DMSO control and data was expressed as % ATPase activity.
For inhibitory ability analysis, TRAP-1 was cultured with a predetermined concentration (0.520 μM) of inhibitor for 30 minutes and then stirred with ATP. Absorbance values were normalized to a DMSO control and data was expressed as % ATPase activity.

[1] = test system: oxygen-induced retinopathy mouse model; experiment: Oxygen-induced retinopathy mouse model, intraocular injection, retinal vascular analysis; assay type: in vivo, C57BL/6J mice; conditions: 1 ul of 0.15 mM intraocularly injected once at P12, analysis P17 (FIG. 17)
Method: An oxygen-induced retinopathy mouse model was induced by rearing young C57BL/6J (Hyochang Science Inc.) mice aged 7 days after birth (P7) in a hyperoxic chamber (Coy Lab. in vivo chamber, 75% O2) for 5 days (P12), and then rearing the mice in a normoxic environment for 5 days (P17). After the young mice were removed from the hyperoxic chamber (P12), 1 ul of SMX was intraocularly injected once at a concentration of 0.15 mM (0.1% DMSO). The SMX used for ocular injection was used after being diluted in phosphate buffer saline (1×PBS) to 0.1%, and 0.1% DMSO in 1×pbs was used in control mice. In the case of Eylea (aflibercept, anti-VEGFab), 40 ug was diluted in 1 ul and 1 ul was intraocularly injected.
The oxygen-induced retinopathy mouse model was formed, and then perfused with 1×PBS and 4% PFA. After mouse eyes were extracted and fixed in 4% PFA, the retinas were isolated. The isolated retinas were washed with 1×PBS, and then blocked (0.1% BSA, 0.1% Triton X-100 in 1×PBS) at room temperature for 1 hour. The retinas were treated with a CD31 blood-vessel staining antibody (CD31, Cell Signaling, 1:100) overnight at 4° C. […] Blood vessel staining was analyzed under a fluorescence microscope (Zen, Axio Zoom). […]
The oxygen-induced retinopathy mouse model was formed, and then perfused with 1×PBS and 4% PFA. […] Blood vessel staining was analyzed under a fluorescence microscope (Zen, Axio Zoom). […]

COC1=C(OC)C(=O)C(CCCCCCCCCC[P+](c2ccccc2)(c2ccccc2)c2ccccc2)=C(C)C1=O [SMx]
expression of HIF-1α (HIF-1α): suppressed
ATPase activity of TRAP-1 (TRAP-1): significantly increased according to the concentration
avascular area of the retina [1]: significantly reduced compared to the Eylea-injected mouse retina
neovascular area of the retina [1]: reduced to the same level as that of the Eylea-injected mouse retina
